Article PMC11459966, “Oral pharmacokinetics and efficacy of oral phospholipid remdesivir nucleoside prodrugs against SARS-CoV-2 in mice” (Antimicrobial Agents and Chemotherapy, 2024)
Entries after “also recorded” stand apart in the source; their conditions may differ. Read-outs that look alike come from different tables or passages of the source.

Experiments:
[1] = tested on: SARS-CoV-2 isolate USA-WA1/2020; assay: microbe, parasite or virus in culture; type: cell-based; conditions: for EC50 / EC90: Calu-3 cells, 44–48 hpi
Vero-TMPRSS2 cells = assay: Cell viability assay (CellTiter-Glo), Vero-TMPRSS2; type: cell-based, African green monkey; conditions: 48 h incubation
Experimental: (§1) Cell viability assays (Table 1) were performed as previously described ([7]). Cells were cultured and seeded as per in vitro antiviral studies in opaque walled 96-well cell culture plates and incubated overnight for Huh7.5, A2T2-A549, and Vero-E6-TMPRSS2 cells and for 2 days for Calu-3 cells. Compounds or controls were added at the indicated concentrations in a total volume of 100 µL, and cells were incubated for 48 h. An equal volume of CellTiter-Glo reagent (Promega, Cat. #G7570) or CellTiter-Glo 2.0 reagent (Promega, Cat. #G9241) was added and mixed, and luminescence was recorded on a Veritas Microplate Luminometer (Turner BioSystems) or a Spark Multimode plate reader (Tecan) according to manufacturer instructions. Percent viability was normalized to DMSO controls, and CC50 values were derived from best fit curves calculated in Prism 10.

[2] = 5-day oral tolerability study with terminal pharmacokinetics in BALB/c mice; type: in vivo; conditions: 80 mg/kg or 100 mg/kg daily PO
Experimental: (§2) Fig 3 Oral RVn prodrugs maintain high serum levels after repeated dosing in mice and hamsters. Multiple-dose oral tolerability and pharmacokinetics in mice and Syrian hamsters: (A and B) 5-day oral tolerability study in BALB/c mice with pharmacokinetics obtained after the final dose. Male 20–22 g mice were given the indicated drugs at (A) 80 mg/kg or (B) 100 mg/kg PO daily in 0.1 M sodium carbonate/bicarbonate pH 9 for 5 days. Plasma was obtained after the last dose at 1, 3, 6, and 12 h (In Vivo Technologies, Moffatt Field, CA). (C) 7-day oral tolerability study in Syrian hamsters with pharmacokinetics obtained after the final dose. […] All plasma samples were analyzed to determine prodrug levels (Aliri Bio, Colorado Springs, CO).
After fortification, 50 µL of plasma was crashed with 400 µL of methanol containing 10 ng/mL of the internal standard (V2066). One hundred fifty microliters of the supernatant was removed and diluted with 150 µL of water in a clean 96 well injection plate.
Chromatography for the prodrugs was performed on a Raptor Biphenyl (2.1 × 50) column at a flow rate of 0.5 mL/min. A gradient method starting at 60% B (0.1% formic acid in 90:10 methanol:acetonitrile) for 30 s and then ramping to 95% B over 2.5 min. This composition was held for 1.0 min before being returned to starting conditions and re-equilibration to 40% A (10 mM ammonium formate with 0.2% formic acid in water).
Oral pharmacokinetic studies were carried out at In Vivo Technologies (Moffatt Field, CA) in male BALB/c mice, 22–23 g under IACUC protocol number IVT-11–010Y12 (LifeSource Animal Care and Use Committee). […] Blood was obtained by facial vein or terminal cardiac puncture at the indicated times and plasma was frozen for analysis. Similar procedures were followed for 5-day tolerability and terminal dose pharmacokinetic studies in mice at oral daily doses of 80 or 100 mg/kg.

[3] = tested on: SARS-CoV-2 isolate USA-WA1/2020
[4] = tested on: SARS-CoV-2 isolate USA-WA1/2020; remark: listed apart in the source
[5] = tested on: SARS-CoV-2 isolate USA-WA1/2020; remark: listed apart in the source
[6] = tested on: SARS-CoV-2 isolate USA-WA1/2020; design: method as in PMID 37040439; conditions: Calu-3, dotted lines of Fig. 2 and 3 ref 7; read-out: in vitro EC90 for SARS-CoV-2 infection in Calu-3 cells; cited from earlier work
Calu-3 cells = tested on: Calu-3 cells; design: method as in PMID 37040439; conditions: Calu-3, CellTiter-Glo, previously published, identical conditions ref 7; cited from earlier work
Huh7.5 cells = tested on: Huh7.5 cells; design: method as in PMID 37040439; conditions: Huh7.5, CellTiter-Glo, previously published, identical conditions ref 7; cited from earlier work
A2T2-A549 cells = assay: Cell viability assay (CellTiter-Glo), A2T2-A549; conditions: A2T2-A549, CellTiter-Glo, 48 h incubation
[7] = Single dose PO or IV plasma pharmacokinetics and tolerability in BALB/c mice; conditions: for tolerability of single escalating oral doses: 20, 60 or 180 mg/kg single oral dose
[8] = Cell viability assay (CellTiter-Glo), Vero-TMPRSS2; type: cell-based, African green monkey; conditions: African green monkey, Vero-TMPRSS2 cells, 48 h incubation
Experimental: as §1

[9] = 7-day oral tolerability study with terminal pharmacokinetics in Syrian hamsters; type: in vivo; conditions: 100 mg/kg PO daily, 7 days
Experimental: as §2
A 7-day oral tolerability and terminal pharmacokinetic study in 100–125 g male Syrian hamsters were done at Attentive Sciences (Stillwell, KS), under IACUC approval number 1123–6788. […] Daily clinical observation and weights were obtained. After the day 7 oral dose blood was obtained at the indicated times and plasma was frozen for analysis.

in vivo = conditions: male, BALB/c, mouse
[10] = tested on: SARS-CoV-2 isolate USA-WA1/2020; assay: microbe, parasite or virus in culture
[11] = tested on: SARS-CoV-2 isolate USA-WA1/2020; assay: microbe, parasite or virus in culture; remark: listed apart in the source
[12] = tested on: SARS-CoV-2 isolate USA-WA1/2020; assay: microbe, parasite or virus in culture; remark: listed apart in the source
[13] = Cell viability assay (CellTiter-Glo), A2T2-A549; conditions: human, A2T2-A549 cells
[14] = IV, 7 mg/kg, BALB/c mice, plasma
[15] = Severe acute respiratory syndrome coronavirus 2
[16] = male, BALB/c, mouse, in vivo, iv, 7 mg/kg
[17] = male, BALB/c, mouse, in vivo, po, 20 mg/kg
[18] = male, BALB/c, mouse, in vivo, po, 60 mg/kg
[19] = male, BALB/c, mouse, in vivo, po, 180 mg/kg

SMILES: CCCCCCCCCCCCCCCCCCOCC(COP(=O)(O)OC[C@H]1O[C@@](C#N)(c2ccc3c(N)ncnn23)[C@H](O)[C@@H]1O)OCc1ccc(C#N)cc1 (some centres unmarked) [Compound V2067]
- Relative activity vs RVn (RVN EC50/Test Compound EC50) ([1]; Calu-3): 12.5×
- EC50 [1]: 0.053 ± 0.018 µM
- EC90 [1]: 0.172 ± 0.14 µM
- CC50 (Vero-TMPRSS2 cells): 57000 nM
- tolerability of once-daily oral doses for 5 days [2]: no adverse clinical effects were noted
- Relative activity vs RVn (RVN EC50/Test Compound EC50) ([3]; A2T2-A549): 14.1×
- SI (CC50/EC50) ([3]; A2T2-A549): 386
- EC50 ([3]; read-out: EC50 μM ± SD, A2T2-A549 cells, 48 hpi): 0.213 ± 0.026 µM
- EC90 ([3]; read-out: EC90 μM ± SD, A2T2-A549 cells, 48 hpi): 0.441 ± 0.071 µM
- Relative activity vs RVn (RVN EC50/Test Compound EC50) ([4]; Huh7.5): 37.7×
- SI (CC50/EC50) ([4]; Huh7.5): 1,311
- EC50 ([4]; read-out: EC50 μM ± SD, Huh7.5 cells, 48 hpi): 0.036 ± 0.014 µM
- EC90 ([4]; read-out: EC90 μM ± SD, Huh7.5 cells, 48 hpi): 0.096 ± 0.037 µM
- Relative activity vs RVn (RVN EC50/Test Compound EC50) ([5]; Vero-TMPRSS2): 23.4×
- SI (CC50/EC50) ([5]; Vero-TMPRSS2): 1,239
- EC50 ([5]; read-out: EC50 μM ± SD, Vero-TMPRSS2 cells, 32 hpi): 0.046 ± 0.014 µM
- EC90 ([5]; read-out: EC90 μM ± SD, Vero-TMPRSS2 cells, 32 hpi): 0.107 ± 0.02 µM
- EC90 [6]: 82 nM
- CC50 (Calu-3 cells): 60200 nM
- CC50 (Huh7.5 cells): 47200 nM
- CC50 (A2T2-A549 cells): 82300 nM
- tolerability of single escalating oral doses ([7]; BALB/c mice): well tolerated with no appreciable adverse effects
- AUC [7, 14]: 36.16 µM·h
- Cmax [7, 14]: 116 µM
- T1/2 [7, 14]: 0.23 h
- AUC ([7]; Oral, 20 mg/kg, BALB/c mice): 64.70 µM·h
- CL/F ([7]; Oral, 20 mg/kg, BALB/c mice): 6.22 mL/min/kg
- Cmax ([7]; Oral, 20 mg/kg, BALB/c mice): 8.83 µM
- T1/2 ([7]; Oral, 20 mg/kg, BALB/c mice): 4.06 h
- Vd/F ([7]; Oral, 20 mg/kg, BALB/c mice): 2.18 L/kg
- AUC ([7]; Oral, 60 mg/kg, BALB/c mice): 154.00 µM·h
- CL/F ([7]; Oral, 60 mg/kg, BALB/c mice): 7.5 mL/min/kg
- Cmax ([7]; Oral, 60 mg/kg, BALB/c mice): 24.9 µM
- T1/2 ([7]; Oral, 60 mg/kg, BALB/c mice): 6.83 h
- Vd/F ([7]; Oral, 60 mg/kg, BALB/c mice): 4.38 L/kg
- AUC ([7]; Oral, 180 mg/kg, BALB/c mice): 332.00 µM·h
- CL/F ([7]; Oral, 180 mg/kg, BALB/c mice): 8.17 mL/min/kg
- Cmax ([7]; Oral, 180 mg/kg, BALB/c mice): 41 µM
- T1/2 ([7]; Oral, 180 mg/kg, BALB/c mice): 12.40 h
- Vd/F ([7]; Oral, 180 mg/kg, BALB/c mice): 8.74 L/kg
- F% (oral bioavailability) ([7]; oral vs IV (7 mg/kg) prodrug exposure, printed on the 20 mg/kg oral lines, BALB/c mice): 57.0%

SMILES: CCCCCCCCCCCCCCCCCCOC[C@H](COP(=O)(O)OC[C@H]1O[C@@](C#N)(c2ccc3c(N)ncnn23)[C@H](O)[C@@H]1O)OCc1ccccc1 [Compound V2043, 1-O-octadecyl-2-O-benzyl-sn-glyceryl-P-RVn]
- EC50 [1, 15]: 0.168 ± 0.074 µM
- EC90 [1, 15]: 0.484 ± 0.142 µM
- CC50 at 48 h [8]: 82600 nM
- tolerability of once-daily oral doses for 5 days [2]: no adverse clinical effects were noted
- tolerability of seven-day once-daily oral dosing [9]: well tolerated without any appreciable toxicity; also recorded: No ill effects were reported
- EC90 [6]: 320 nM
- CC50 (Calu-3 cells): 58300 nM
- half-life (in vivo; iv, 7 mg/kg): 0.7 h
- CL/F (in vivo; po, 20 mg/kg): 4.35 mL/min/kg
- Vd/F (in vivo; po, 20 mg/kg): 1.68 L/kg
- half-life (in vivo; po, 20 mg/kg): 4.46 h
- CL/F (in vivo; po, 60 mg/kg): 5.57 mL/min/kg
- Vd/F (in vivo; po, 60 mg/kg): 3.04 L/kg
- half-life (in vivo; po, 60 mg/kg): 6.31 h
- CL/F (in vivo; po, 180 mg/kg): 14.1 mL/min/kg
- Vd/F (in vivo; po, 180 mg/kg): 8.61 L/kg
- half-life (in vivo; po, 180 mg/kg): 7.06 h
- EC50 ([10]; Severe acute respiratory syndrome coronavirus 2, read-out: EC50 μM ± SD): 0.566 ± 0.028 µM
- EC90 ([10]; Severe acute respiratory syndrome coronavirus 2, read-out: EC90 μM ± SD): 1.62 ± 0.227 µM
- EC50 ([11]; Severe acute respiratory syndrome coronavirus 2, Huh7.5, read-out: EC50 μM ± SD): 0.117 ± 0.009 µM
- EC90 ([11]; Severe acute respiratory syndrome coronavirus 2, Huh7.5, read-out: EC90 μM ± SD): 0.293 ± 0.042 µM
- EC50 ([12]; Severe acute respiratory syndrome coronavirus 2, Vero/TMPRSS2, read-out: EC50 μM ± SD): 0.104 ± 0.03 µM
- EC90 ([12]; Severe acute respiratory syndrome coronavirus 2, Vero/TMPRSS2, read-out: EC90 μM ± SD): 0.248 ± 0.052 µM
- CC50 at 48 h [13]: > 100000 nM
- tolerability of single escalating oral doses ([7]; BALB/c mice): well tolerated with no appreciable adverse effects
- AUC [7, 16]: 46.6 µM·h
- Cmax [7, 16]: 96.6 µM
- AUC [7, 17]: 90.1 µM·h
- Cmax [7, 17]: 10.6 µM
- AUC [7, 18]: 199 µM·h
- Cmax [7, 18]: 20.3 µM
- AUC [7, 19]: 211 µM·h
- Cmax [7, 19]: 17 µM
